Laboratory results as given in patent US10494378B2, “Fused ring pyrimidine compound, intermediate, and preparation method, composition and use thereof” (GUANGZHOU MAXINOVEL PHARMACEUTICALS CO., LTD., priority 2015, dated 2019).

Assays:
Type in all cases: biochemical
FLT3-D835Y kinase = molecular target: T1, FLT3-D835Y kinase (Homo sapiens, UniProt P36888, D835Y); assay: IC50 evaluation assay of FLT3-D835Y kinase inhibition (Caliper); details: 28° C.; average of two tests; read-out: IC50 (nM) inhibiting FLT3-D835Y kinase
T1 construct: purchased Invitrogen PR7450A
T1 sequence (P36888 27-993 D835Y): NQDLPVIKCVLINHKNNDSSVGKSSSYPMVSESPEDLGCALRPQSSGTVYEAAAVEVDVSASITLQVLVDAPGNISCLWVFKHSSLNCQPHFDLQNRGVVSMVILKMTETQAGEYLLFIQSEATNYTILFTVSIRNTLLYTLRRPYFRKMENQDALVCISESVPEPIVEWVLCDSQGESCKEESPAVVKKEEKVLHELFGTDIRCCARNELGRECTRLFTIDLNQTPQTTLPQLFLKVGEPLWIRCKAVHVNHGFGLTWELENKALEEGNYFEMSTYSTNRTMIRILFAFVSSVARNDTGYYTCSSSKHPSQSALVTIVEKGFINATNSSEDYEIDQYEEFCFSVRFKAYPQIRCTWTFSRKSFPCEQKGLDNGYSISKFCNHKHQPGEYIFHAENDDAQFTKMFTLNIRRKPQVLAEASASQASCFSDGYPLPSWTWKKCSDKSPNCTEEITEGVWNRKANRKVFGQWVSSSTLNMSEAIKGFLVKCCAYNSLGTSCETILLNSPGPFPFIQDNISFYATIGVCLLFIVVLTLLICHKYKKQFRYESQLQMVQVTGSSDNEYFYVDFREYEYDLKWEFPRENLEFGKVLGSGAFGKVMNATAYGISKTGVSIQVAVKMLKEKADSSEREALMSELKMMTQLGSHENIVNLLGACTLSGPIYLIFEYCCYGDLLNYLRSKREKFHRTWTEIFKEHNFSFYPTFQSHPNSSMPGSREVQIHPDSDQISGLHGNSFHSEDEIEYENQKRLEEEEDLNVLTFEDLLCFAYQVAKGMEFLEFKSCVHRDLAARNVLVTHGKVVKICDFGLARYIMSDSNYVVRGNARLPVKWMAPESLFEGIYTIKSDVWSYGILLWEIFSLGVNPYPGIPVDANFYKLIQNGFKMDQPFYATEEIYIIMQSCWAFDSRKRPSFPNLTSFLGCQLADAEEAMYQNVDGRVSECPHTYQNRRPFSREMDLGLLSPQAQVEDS
Description: 1. The compound was dissolved in 100% DMSO, diluted into solutions with appropriate concentration gradients with water according to experimental requirement, and added to a 96-well plate.
2. FLT3 kinase (Carna, Cat. No. 08-154, Lot. No. 07CBS-2350), FLT3-ITD kinase (Invitrogen, Cat. No. PV6191, Lot. No. 1753453) and FLT3-D835Y kinase (Invitrogen, Cat. No. PR7450A, Lot. No. 1629729C) were diluted to the optimum concentration with the following buffer solution: 50 mM HEPES, pH 7.5, 0.0015% Brij-35, 10 mM MgCl2, 2 mM DTT. Transfer to the 96-well plate and incubate with the compound at 28° C. for a period of time.
3. The buffer solution (100 mM HEPES, pH 7.5, 0.0015% Brij-35, 0.2% Coating Reagent and […]) was added to terminate the reaction.
4. The conversion rate was read with Caliper Reader. The inhibition rate was calculated as the average of two tests.

JAK1 kinase = molecular target: T2, JAK1 kinase (Homo sapiens, UniProt P23458); assay: IC50 evaluation assay on JAK1 kinase inhibition (Caliper); details: adenosine triphosphate at Km; 1 hour at 28° C.; average of two tests; read-out: IC50 (nM) inhibiting JAK 1 kinase
T2 construct: purchased Carna 08-144
T2 sequence (P23458 whole entry): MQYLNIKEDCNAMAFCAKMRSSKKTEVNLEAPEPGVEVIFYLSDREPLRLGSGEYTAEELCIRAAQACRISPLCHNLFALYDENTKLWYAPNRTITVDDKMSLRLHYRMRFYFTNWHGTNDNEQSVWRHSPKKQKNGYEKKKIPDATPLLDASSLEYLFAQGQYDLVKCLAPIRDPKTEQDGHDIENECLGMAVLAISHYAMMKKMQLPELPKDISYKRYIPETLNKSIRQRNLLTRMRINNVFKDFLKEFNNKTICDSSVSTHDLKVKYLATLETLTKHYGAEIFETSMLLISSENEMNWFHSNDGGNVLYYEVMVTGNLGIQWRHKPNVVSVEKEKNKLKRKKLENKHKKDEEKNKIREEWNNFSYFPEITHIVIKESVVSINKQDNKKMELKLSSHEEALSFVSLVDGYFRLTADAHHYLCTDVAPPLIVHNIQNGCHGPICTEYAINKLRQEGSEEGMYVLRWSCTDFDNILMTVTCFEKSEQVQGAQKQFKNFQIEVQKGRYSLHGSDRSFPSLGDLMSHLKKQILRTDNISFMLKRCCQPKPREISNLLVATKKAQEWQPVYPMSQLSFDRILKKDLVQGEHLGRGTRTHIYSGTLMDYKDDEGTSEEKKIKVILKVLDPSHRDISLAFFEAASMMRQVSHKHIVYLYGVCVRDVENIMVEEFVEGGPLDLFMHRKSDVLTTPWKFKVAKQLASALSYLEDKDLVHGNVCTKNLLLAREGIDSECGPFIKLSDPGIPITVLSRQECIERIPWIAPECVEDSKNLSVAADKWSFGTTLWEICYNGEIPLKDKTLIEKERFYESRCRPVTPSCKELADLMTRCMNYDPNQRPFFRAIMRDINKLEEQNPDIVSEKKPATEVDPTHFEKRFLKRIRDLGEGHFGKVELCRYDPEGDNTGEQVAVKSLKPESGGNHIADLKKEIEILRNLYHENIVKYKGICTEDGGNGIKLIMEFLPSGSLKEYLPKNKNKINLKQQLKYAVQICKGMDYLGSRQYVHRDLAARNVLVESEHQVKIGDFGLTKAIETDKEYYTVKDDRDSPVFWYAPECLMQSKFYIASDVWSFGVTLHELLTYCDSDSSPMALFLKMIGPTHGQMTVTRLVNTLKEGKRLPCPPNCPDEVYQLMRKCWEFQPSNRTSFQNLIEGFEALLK
Description: (§1) 1. The compound was dissolved in 100% DMSO, diluted into solutions with appropriate concentration gradients with water according to experimental requirement, and added to a 384-well plate.
(§2) 2. JAK2 kinase (Carna, Cat. No. 08-045, Lot. No. 07CBS-1927) and JAK3 kinase (Carna, Cat. No. 08-046, Lot. No. 08CBS-0371) were diluted to the optimum concentration with the following buffer solution: 50 mM HEPES, pH 7.5, 0.0015% Brij-35, 2 mM DTT. JAK1 kinase (Carna, Cat. No. 08-144, Lot. No. 11CBS-0144D) was diluted to the optimum concentration with the following buffer solution: 25 mM HEPES pH 7.5, 0.01% Brij-35, 2 mM DTT, 0.01M Triton. Transfer to the 384-well plate and incubated with the compound for a period of time.
(§3) 3. […] The substrate of JAK1 was diluted to the optimum concentration with the following buffer: 25 mM HEPES, pH 7.5, 0.01% Brij-35, 10 mM MgCl2, 0.01M Triton, adenosine triphosphate at Km. Add to the 384-well plate to initiate there action and react for 1 hour at 28° C.
(§4) 4. 1 Eq. of sulfuric acid solution was added to terminate the reaction, the conversion rate was read with Caliper Reader. The inhibition rate was calculated as the average of two tests.

JAK2 kinase = molecular target: T3, JAK2 kinase (Homo sapiens, UniProt O60674); assay: IC50 evaluation assay on JAK2 kinase inhibition (Caliper); details: adenosine triphosphate at Km; 1 hour at 28° C.; average of two tests; read-out: IC50 (nM) inhibiting JAK 2 kinase
T3 construct: purchased Carna 08-045
T3 sequence (O60674 whole entry): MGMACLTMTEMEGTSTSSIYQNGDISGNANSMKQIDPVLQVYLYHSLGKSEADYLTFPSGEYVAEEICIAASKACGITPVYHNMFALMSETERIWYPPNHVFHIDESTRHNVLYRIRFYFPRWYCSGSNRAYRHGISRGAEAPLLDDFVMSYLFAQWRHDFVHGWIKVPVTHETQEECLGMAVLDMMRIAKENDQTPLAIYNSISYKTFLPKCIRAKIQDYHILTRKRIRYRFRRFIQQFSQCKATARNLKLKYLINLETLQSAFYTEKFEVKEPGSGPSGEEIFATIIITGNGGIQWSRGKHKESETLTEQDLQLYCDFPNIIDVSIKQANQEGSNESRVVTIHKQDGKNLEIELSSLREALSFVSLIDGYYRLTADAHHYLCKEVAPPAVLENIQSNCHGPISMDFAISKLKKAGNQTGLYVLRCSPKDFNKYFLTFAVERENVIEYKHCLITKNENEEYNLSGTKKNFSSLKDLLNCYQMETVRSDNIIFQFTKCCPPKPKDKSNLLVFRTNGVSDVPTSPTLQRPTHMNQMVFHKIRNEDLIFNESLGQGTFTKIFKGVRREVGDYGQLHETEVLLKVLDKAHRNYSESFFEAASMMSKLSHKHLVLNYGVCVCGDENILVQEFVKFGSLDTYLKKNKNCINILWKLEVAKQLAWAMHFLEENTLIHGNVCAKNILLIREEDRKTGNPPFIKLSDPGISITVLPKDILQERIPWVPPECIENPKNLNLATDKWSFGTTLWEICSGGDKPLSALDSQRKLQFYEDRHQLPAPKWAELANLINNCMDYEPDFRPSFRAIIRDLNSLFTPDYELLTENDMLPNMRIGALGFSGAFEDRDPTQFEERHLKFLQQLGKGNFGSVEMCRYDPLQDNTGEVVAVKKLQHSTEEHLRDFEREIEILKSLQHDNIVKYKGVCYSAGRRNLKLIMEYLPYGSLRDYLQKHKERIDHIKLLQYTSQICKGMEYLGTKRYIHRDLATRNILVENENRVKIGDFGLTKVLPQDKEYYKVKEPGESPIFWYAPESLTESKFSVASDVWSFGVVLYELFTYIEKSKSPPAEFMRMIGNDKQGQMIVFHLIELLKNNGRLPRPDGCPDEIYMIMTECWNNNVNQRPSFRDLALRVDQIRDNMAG
Description: as §1, §2, §3, §4

Compound | IC50 (FLT3-D835Y kinase) [nM] | IC50 (JAK1 kinase) [nM] | IC50 (JAK2 kinase) [nM]
COc1cc(F)ccc1-c1c(C)sc2cnc(Nc3cnn(C4CCNCC4)c3)nc12 [Compound 31, N-[7-(4-fluoro-2-methoxyphenyl)-6-methylthieno[3,2-d]pyrimidinyl-2-yl]-1-(piperidinyl-4-yl)-1H-pyrazol-4-amine] | 0.2 | – | –
COc1cc(F)ccc1-c1c(C)sc2cnc(Nc3cnn(C4CCN(CCO)CC4)c3)nc12 [Compound 34, 2-[4-(4-{[7-(4-fluoro-2-methoxyphenyl)-6-methylthieno[3,2-d]pyrimidinyl-2-yl]amino}-1H-pyrazol-1-yl)-piperidinyl-1-yl]-1-ethanol] | 0.23 | 5.6 | 0.71
